Source: PubChem BioAssay (NCI)
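48-hour exposure; five concentrations; linearly interpolated endpoints. GI50 is the concentration that inhibits growth by half. TGI marks complete inhibition of growth.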

What was measured:
Assay in all cases: inhibition of tumour cell growth, NCI panel, 48 h
SR leukemia = tested on: SR leukemia
SF-295 CNS = tested on: SF-295 CNS
A549 NSCLC = tested on: A549 NSCLC
UO-31 renal = tested on: UO-31 renal
SK-MEL-5 melanoma = tested on: SK-MEL-5 melanoma
SK-MEL-28 melanoma = tested on: SK-MEL-28 melanoma
NCI-H226 lung = tested on: NCI-H226 lung
DU-145 prostate = tested on: DU-145 prostate
NCI/ADR-RES ovarian = tested on: NCI/ADR-RES ovarian
PC-3 prostate = tested on: PC-3 prostate

Structure (SMILES)	TGI (SR leukemia) [µM]	TGI (SF-295 CNS) [µM]	TGI (A549 NSCLC) [µM]	TGI (UO-31 renal) [µM]	TGI (SK-MEL-5 melanoma) [µM]	TGI (SK-MEL-28 melanoma) [µM]	TGI (NCI-H226 lung) [µM]	GI50 (SR leukemia) [µM]	GI50 (SF-295 CNS) [µM]	GI50 (A549 NSCLC) [µM]	GI50 (UO-31 renal) [µM]	GI50 (DU-145 prostate) [µM]	TGI (DU-145 prostate) [µM]	GI50 (SK-MEL-5 melanoma) [µM]	GI50 (NCI/ADR-RES ovarian) [µM]	TGI (NCI/ADR-RES ovarian) [µM]	GI50 (PC-3 prostate) [µM]	TGI (PC-3 prostate) [µM]	GI50 (SK-MEL-28 melanoma) [µM]	GI50 (NCI-H226 lung) [µM]
COC(=O)/C(=C/c1ccc(OC)cc1)NC(=O)c1ccccc1	> 100	> 100	> 100	> 100	> 100	> 100	> 100													
OCC#Cc1ccccc1C#Cc1ccc(C#Cc2ccccc2C#CCO)s1	> 100	29.2	41	36	31.2	46.8		36.9	15.1	19.1	18.1	14.9	28.1	16.3	21.1	36	14.8	28.7	20.5	
CC(C)(C)OC(=O)CN1CCc2c(sc3ncnc(N/N=C/c4cccc5ccccc45)c23)C1	15.2	10.2	> 33.3	5.87	8.28	15.7	12.8	1.46	4.41	3.03	1.19	4.73	31.9	4.08	3.55	14.5	2.04	> 33.3	4.41	4.28
CC(=O)OC1CCC2(C)C(=CCC3C4CCC5(OC6CC(C)CN(C(C)=O)C6C5C)C(C)=C4C(=O)C32)C1 (stereo not drawn)	40.8	42	47.7	81.4	21.9	> 100	45.8						> 100			49.5		28.6		
O=[N+]([O-])/C=C\c1c[nH]c2ccc(OCc3ccccc3)cc12	4.91	23.8	14.8	15.2	19.2	9.47	13.4						22.2			50.1		21.5		
O=[N+]([O-])c1ccc(/C=C(/c2ccc([N+](=O)[O-])o2)S(=O)(=O)c2ccccc2)o1	2.6	34.2	38.2	16.3	24.4	33.6	3.65						28			39.1		30.1		
CC1SC(c2c(Cl)cccc2Cl)N(NC(=O)C(O)c2ccccc2)C1=O (stereo not drawn)	> 100	> 100	> 100	> 100	> 100	> 100	> 100	34.9	> 100	94	> 100	> 100	> 100	68.4	45.4	> 100	39.7	> 100	> 100	> 100
COc1ccc2c(c1)cn1c3ccc(O)cc3[nH]c(=O)c21	2.7	3.52	1.82	13.1	1.32	6.33	6.92	0.0543	0.248	0.301	0.264	0.234	8.74	0.0362	0.187	11.8	0.244	16.4	0.147	0.181
CC(CN1CCN(CC(C)Nc2ccnc3cc(Cl)ccc23)CC1)Nc1ccnc2cc(Cl)ccc12 (stereo not drawn)	7.45	51.2	> 57	30.7	23.5	10.4	> 69.5					7.83	> 100		83.6	> 100	3.04	57.2		
COc1cc(NCC2COc3c(ccc(OC)c3OC)C2=O)c([N+](=O)[O-])cc1OC (stereo not drawn)	> 100	> 100	> 100	> 100	> 100	> 100	> 100						> 100			> 100		> 100		
Cc1cc(C)c2c(SCc3ccc(Cl)cc3Cl)nc(N)nc2n1	> 100	> 100	> 100	70.7	> 100	> 100	> 100						> 100			> 100		> 100		
Cn1c2ccccc2c(=O)c2c([N+](=O)[O-])ccc(NCCN)c21	> 100	25	25.5	18.8	27.2	29.2	27.2													
CCN(CC)CCOc1ccc2c(c1)C(=O)c1cc(OCCN(CC)CC)ccc1-2	6.59	49.1	32.9	26.3	24.6	29.4	34.2	2.69	17.2	6.4	3.52	14.8	81.5	12.2	9.63	33.2	5.64	26.2	15.1	11.7
COc1cc(NCc2ccccc2O)c2ncccc2c1	58.3	67.4	> 100	75.8	23.4	80.2	> 100	5.91	20.6	49.1	7.17	41.7	> 100	10.1	23.2	85.3	10.6	90.6	21.3	20.8
COc1cc2cc(Oc3ccc(NC(=O)Nc4ccc(Cl)c(C(F)(F)F)c4)cc3)c(C)nc2cc1OC	2.65	2.91	4.16	2.38	2.17	5.45	5.01	0.831	0.899		0.924	1.24	5.11	0.793	1.06	4.91	0.781	2.96	1.41	1.27
CC(O)C(O)C(O)C(/C=N\Nc1ccccc1)=N/Nc1ccccc1 (stereo not drawn)	41.9	25.7	28.7	25.7	28.5	30.2							35.7			40.2		49.6		
